Columns and labels:
[1] = Solubility of metal piroctone complexes in 5 wt% aqueous SLES 1EO solution; assay type: physicochemical; conditions: 1% sample in 5 wt% aqueous solution of SLES 1EO at 20° C.
Procedure: The solubility of metal piroctone complexes at 20° C. in a 5 wt% aqueous solution of SLES 1EO (sodium lauryl ether sulfate) Is listed in Table 1: […]

[2] = UV stability of ethanolic solutions; assay type: physicochemical; conditions: 5 hours of UV irradiation (UVA 180 uW/cm2, UVB210 uW/cm2)
Procedure: The UV stability of an ethanolic solutions (0.5 mM) of copper piroctone and manganese piroctone were measured and compared with a solution of Octopirox 1 mM solution.

Which “% Solubility” value [1] does the source give for `Cc1cc(CC(C)CC(C)(C)C)n([O-])c(=O)c1.Cc1cc(CC(C)CC(C)(C)C)n([O-])c(=O)c1.[Cu+2]` (stereo not shown) [1% Cu—PIR, Copper bis-piroctone] here?
Its value is 1.3%.

And the “degraded after UV irradiation” value ([2]; ethanolic solution 0.5 mM)?
Its value is 1.8%.

With `Cc1cc(CC(C)CC(C)(C)C)n([O-])c(=O)c1.Cc1cc(CC(C)CC(C)(C)C)n([O-])c(=O)c1.[Mn+2]` (stereo not shown) [1% Mn—PIR, Manganese bis-piroctone] as the molecule, how does the “% Solubility” value [1] read?
Its value is 1.0%.

What about the “degraded after UV irradiation” value ([2]; ethanolic solution 0.5 mM) of the same molecule?
The value was 3.2%.

Which results are given for `Cc1cc(CC(C)CC(C)(C)C)n(O)c(=O)c1.NCCO` (stereo not shown) [1% OCT, piroctone olamine, reference compound]?
% Solubility [1]: 100.2%; degraded after UV irradiation ([2]; 1 mM solution): 46%

For `Cc1cc(CC(C)CC(C)(C)C)n([O-])c(=O)c1.Cc1cc(CC(C)CC(C)(C)C)n([O-])c(=O)c1.[Zn+2]` (stereo not shown) [1% Zn—PIR, Zinc bis-piroctone, reference compound], which “% Solubility” value [1] is on record?
Its value is 111.8%.

— patent US20230190611A1, “PERSONAL CARE COMPOSITIONS COMPRISING A METAL PIROCTONE COMPLEX” (Conopco, Inc., d/b/a UNILEVER, priority 2020, published 2023)
